# Assay results from US8956824B2, “Methods for identifying allosteric modulators of ship polypeptides” (British Columbia Cancer Agency Branch, priority 2006, dated 2015).
# “Also recorded” adds a separate entry of the source.
# Target: T1, SHIP1 enzyme (Mus musculus, UniProt Q9ES52)
# T1 construct: Full length, wild-type SHIP1 enzyme (wt); made in house; host or cells: 293T cells, transient transfection with pME18S-His-SHIP
# T1 sequence (Q9ES52 1-1191): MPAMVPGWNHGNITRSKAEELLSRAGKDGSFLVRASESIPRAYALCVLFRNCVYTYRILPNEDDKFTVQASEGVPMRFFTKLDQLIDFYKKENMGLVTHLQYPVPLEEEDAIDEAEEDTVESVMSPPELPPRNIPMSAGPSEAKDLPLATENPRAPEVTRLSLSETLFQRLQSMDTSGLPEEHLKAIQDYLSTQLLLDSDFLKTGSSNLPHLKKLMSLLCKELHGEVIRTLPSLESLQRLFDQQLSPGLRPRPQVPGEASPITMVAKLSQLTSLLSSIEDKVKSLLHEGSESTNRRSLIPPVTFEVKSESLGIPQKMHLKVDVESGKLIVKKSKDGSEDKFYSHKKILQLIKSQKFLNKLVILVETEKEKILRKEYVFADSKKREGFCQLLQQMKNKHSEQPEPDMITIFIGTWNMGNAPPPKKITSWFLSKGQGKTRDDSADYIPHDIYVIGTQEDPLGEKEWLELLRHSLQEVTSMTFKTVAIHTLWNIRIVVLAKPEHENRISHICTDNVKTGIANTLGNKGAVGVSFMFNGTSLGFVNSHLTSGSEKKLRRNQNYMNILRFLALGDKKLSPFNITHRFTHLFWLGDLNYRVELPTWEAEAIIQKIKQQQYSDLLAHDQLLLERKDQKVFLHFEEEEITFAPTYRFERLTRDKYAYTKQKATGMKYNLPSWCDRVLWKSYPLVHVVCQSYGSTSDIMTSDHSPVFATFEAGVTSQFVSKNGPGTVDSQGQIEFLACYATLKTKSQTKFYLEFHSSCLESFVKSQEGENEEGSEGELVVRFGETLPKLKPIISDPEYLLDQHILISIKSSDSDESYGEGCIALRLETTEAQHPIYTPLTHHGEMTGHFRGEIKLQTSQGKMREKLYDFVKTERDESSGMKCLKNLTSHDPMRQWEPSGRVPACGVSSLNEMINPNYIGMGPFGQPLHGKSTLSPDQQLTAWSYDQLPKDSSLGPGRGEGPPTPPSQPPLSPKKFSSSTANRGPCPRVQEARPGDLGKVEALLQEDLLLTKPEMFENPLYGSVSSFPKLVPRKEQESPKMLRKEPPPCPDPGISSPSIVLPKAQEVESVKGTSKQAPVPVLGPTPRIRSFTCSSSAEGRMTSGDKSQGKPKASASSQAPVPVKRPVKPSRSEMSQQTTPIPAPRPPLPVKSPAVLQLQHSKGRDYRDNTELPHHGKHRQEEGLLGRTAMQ
# Assay: In vitro SHIP enzyme assay, wild-type SHIP1
# Format: biochemical
# Conditions: for SHIP1 enzyme activity in vitro (activation): FIG. 1A / 3B; for activation of wild-type SHIP1 enzyme by allosteric activators: PI-3,4-P2 20 μM, AQX-MN100 80 μg/mL=250 μM, 30 μM IP4, FIG. 4B
# Source text: Production of recombinant SHIP1 enzyme and SHIP1 C2 and PH domains: Recombinant, N-terminal His6 tagged SHIP1 enzyme was expressed in mammalian 293T cells by transient transfection with pME18S-His-SHIP plasmid and purified to >95% homogeneity by Nichelating bead chromatography (Qiagen, Mississauga, Ontario) as assessed by Coomassie Blue visualization of sodium dodecyl sulfate-polyacrylamide gel electrophoresis (SDS-PAGE) separated material. Recombinant SHIP1 C2 domain (amino acid residues 725 to 863) or SHIP1 PH domain (amino acid residues 984-1319) were expressed in E. coli transformed with a pET28C expression vector constructed as described herein. Cultures were induced overnight with 1 mM IPTG, and protein purified from the cell lysates by Ni-chelating bead chromatography was >95% pure by SDS-PAGE analysis.
# In vitro SHIP enzyme assay. The SHIP enzyme assay was performed in 96-well microtitre plates with 10 ng of enzyme/well in a total volume of 25 μL of 20 mM Tris HCl, pH 7.5 and 10 mM MgCl2. […] The reaction was allowed to proceed for 20 min at 37° C. and the amount of inorganic phosphate released assessed by the addition of Malachite Green reagent followed by an absorbance measurement at 650 nm (15). SHIP2 enzyme was purchased from Echelon Biosciences (Salt Lake City, Utah) and an equivalent amount of inositol phosphatase activity was used in the in vitro enzyme assay. Enzyme data are expressed as the mean of triplicates+/−SEM. Experiments were performed at least 3 times.
"enhancement of SHIP1 enzyme activity (% change relative to vehicle control, 2 μM final concentration, FIGS. 8A-B)","activation of wild-type SHIP1 enzyme by allosteric activators (listed as PI(3,4)P2)",Compound,"activation of SHIP1 relative to Pelorol (40 μg/mL, FIG. 1A)",SHIP1 enzyme activity in vitro (activation),activation of wild-type SHIP1 enzyme by allosteric activators
,,Cc1cc(O)c(O)c2c1[C@]1(C)CC[C@H]3C(C)(C)CCC[C@]3(C)[C@H]1C2 [AQX-016A],3 fold,increases SHIN enzyme activity in vitro and in vivo,
~500%,,Cc1cc(O)cc2c1[C@]1(C)CC[C@H]3C(C)(C)CCC[C@]3(C)[C@H]1C2 [AQX-MN100],,enhanced SHIP1 enzyme activity in vitro; also recorded: activates SHIP enzyme activity in vitro,activated SHIP to the same extent; also recorded: enhanced
,enhanced,"phosphatidylinositol-3,4-bisphosphate [PI-3,4-P2, reference compound]",,,activated SHIP to the same extent as AQX-MN100
